According to patent US20250122191A1, “COMPOUNDS AS BCL-2 INHIBITORS” (Fochon Biosciences, Ltd, priority 2021, published 2025):

Tests used:
RS4;11-BCL-2 G101V cells = assay: Cell proliferation assay (MTS), RS4;11-BCL-2 G101V engineered cells; type: cell-based; conditions: Homo sapiens, 120 h, read-out: RS4, 11 BCL2-G101V IC50
How it was run: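 Inhibition of mutant BCL-2 is inferred from reduced proliferation of RS4;11 cells stably overexpressing the mutant. Compounds are tested at 1.5–10000 nM for 120 h (G101V, F104L) or 72 h (D103E, D103Y), with MTS absorbance at 490 nm used to derive IC50.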

Toledo cells = assay: Cell proliferation assay (MTS), Toledo cells; type: cell-based; conditions: Homo sapiens, 72 h
How it was run: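 Toledo cells (RPMI-1640, 10% FBS) seeded at 30000 cells/well, rested 4 h, then exposed 72 h at 37 °C, 5% CO2 to compound at nine final concentrations, 1.5–10000 nM. Viability by MTS (2 h), absorbance at 490 nm. IC50 from the concentration-response.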

SMILES | IC50 (RS4;11-BCL-2 G101V cells) [nM] | IC50 (Toledo cells) [nM]
CCOc1nc2[nH]cc(F)c2cc1Oc1cc(N2CCC3(CC2)CC(N2CCN(C4COC4)C[C@H]2c2ccccc2C(C)C)C3)ccc1C(=O)NS(=O)(=O)c1cnc(NC[C@H]2CC[C@](C)(O)CC2)c([N+](=O)[O-])c1 [Example 132, 2-((6-ethoxy-3-fluoro-1H-pyrrolo[2,3-b]pyridin-5-yl)oxy)-N-((6-((((1r,4r)-4-hydroxy-4-methylcyclohexyl)methyl)amino)-5-nitropyridin-3-yl)sulfonyl)-4-(2-((R)-2-(2-isopropylphenyl)-4-(oxetan-3-yl)piperazin-1-yl)-7-azaspiro[3.5]nonan-7-yl)benzamide] | 1 | 1
CC(C)c1ccccc1[C@@H]1CN(C[C@@H]2COCCO2)CCN1C1CC2(CCN(c3ccc(C(=O)NS(=O)(=O)c4cnc(NC[C@H]5CC[C@](C)(O)CC5)c([N+](=O)[O-])c4)c(Oc4cnc5[nH]cc(F)c5c4)c3)CC2)C1 [Example 335, 4-(2-((R)-4-(((R)-1,4-dioxan-2-yl)methyl)-2-(2-isopropylphenyl)piperazin-1-yl)-7-azaspiro[3.5]nonan-7-yl)-2-((3-fluoro-1H-pyrrolo[2,3-b]pyridin-5-yl)oxy)-N-((6-((((1r,4r)-4-hydroxy-4-methylcyclohexyl)methyl)amino)-5-nitropyridin-3-yl)sulfonyl)benzamide] | 1 | 1

Further lines, with some results ahead:

IC50 (RS4;11-BCL-2 G101V cells) [nM] | SMILES | IC50 (Toledo cells) [nM]
1 | CCOc1nc2[nH]cc(F)c2cc1Oc1cc(N2CCC3(CC2)CC(N2CCN(CCOC)C[C@H]2c2ccccc2C(C)C)C3)ccc1C(=O)NS(=O)(=O)c1cnc(NC[C@H]2CC[C@](C)(O)CC2)c([N+](=O)[O-])c1 [Example 130, 2-((6-ethoxy-3-fluoro-1H-pyrrolo[2,3-b]pyridin-5-yl)oxy)-N-((6-((((1r,4r)-4-hydroxy-4-methylcyclohexyl)methyl)amino)-5-nitropyridin-3-yl)sulfonyl)-4-(2-((R)-2-(2-isopropylphenyl)-4-(2-methoxyethyl)piperazin-1-yl)-7-azaspiro[3.5]nonan-7-yl)benzamide] | 1
1 | COc1nc2[nH]cc(F)c2cc1Oc1cc(N2CCC3(CC2)CC(N2CCN(Cc4cc(F)c(OC)c(F)c4)C[C@H]2c2ccccc2C(C)C)C3)ccc1C(=O)NS(=O)(=O)c1cnc(NC[C@H]2CC[C@](C)(O)CC2)c([N+](=O)[O-])c1 [Example 107, 4-(2-((R)-4-(3,5-difluoro-4-methoxybenzyl)-2-(2-isopropylphenyl)piperazin-1-yl)-7-azaspiro[3.5]nonan-7-yl)-2-((3-fluoro-6-methoxy-1H-pyrrolo[2,3-b]pyridin-5-yl)oxy)-N-((6-((((1r,4r)-4-hydroxy-4-methylcyclohexyl)methyl)amino)-5-nitropyridin-3-yl)sulfonyl)benzamide] | 1
1 | CC(C)c1ccccc1[C@@H]1CN(Cc2cc3c(cn2)OCCO3)CCN1C1CC2(CCN(c3ccc(C(=O)NS(=O)(=O)c4cnc(NC[C@H]5CC[C@](C)(O)CC5)c([N+](=O)[O-])c4)c(Oc4cnc5[nH]cc(F)c5c4)c3)CC2)C1 [Example 341, 4-(2-((R)-4-((2,3-dihydro-[1,4]dioxino[2,3-c]pyridin-7-yl)methyl)-2-(2-isopropylphenyl)piperazin-1-yl)-7-azaspiro[3.5]nonan-7-yl)-2-((3-fluoro-1H-pyrrolo[2,3-b]pyridin-5-yl)oxy)-N-((6-((((1r,4r)-4-hydroxy-4-methylcyclohexyl)methyl)amino)-5-nitropyridin-3-yl)sulfonyl)benzamide] | 1
